Test results taken from patent US8287902B2, “Enhanced-diffusion capsule” (Rainbow Medical Ltd., priority 2008, dated 2012).

Assay: Maximum plasma concentration of octreotide in rats after endoscopic administration
Conditions: same administered octreotide level (5 mg)
Experimental: A control test was conducted on seven control rats. A 5 mg solution of octreotide was endoscopically administered to the control rats, and the resulting maximum plasma concentrations of octreotide in the control rats were measured.
Octreotide was administered to three test rats using techniques that were in accordance with embodiments of the present invention. A drug layer of 5 mg of octreotide was dried onto the outer layer of each of three capsules, and the capsules were endoscopically placed in the small intestine of the three test rats. The resulting maximum plasma concentrations of octreotide in the test rats were measured.

In the case of C[C@@H](O)[C@@H]1NC(=O)[C@H](CCCCN)NC(=O)[C@@H](Cc2c[nH]c3ccccc23)NC(=O)[C@H](Cc2ccccc2)NC(=O)[C@@H](NC(=O)[C@H](N)Cc2ccccc2)CSSC[C@@H](C(=O)N[C@H](CO)[C@@H](C)O)NC1=O [octreotide], the “resultant blood concentration of octreotide, test group (capsule surface) versus control group (solution)” value is reported as “significantly higher”.
